According to paper PMC6372667 (Experimental & Molecular Medicine, 2019):
Where two headings read alike, the source gives them in different places.

Columns and labels:
C6 rat glial cells = experiment: MTT cytotoxicity assay, C6; assay type: cell-based; conditions: 24 h
Description: (§1) Cytotoxicity was assessed using the MTT assay. Briefly, the cells were seeded into a 96-well plate at a density of 1×10^5 cells per well in 100 µL of corresponding media and incubated at 37 °C in an incubator under 5% CO2 tension for 24 h. The culture media were then replaced with 100 µL of fresh serum-free media in the presence of varied concentrations of pterosin derivatives, and cells were incubated for an additional 24 h. The control was treated with an equal amount of DMSO present in the assay for a 5 mM concentration. Then, 100 µL of MTT solution (0.5 mg/mL in Phosphate Buffered Saline (PBS)) was added to each culture. To measure the proportion of surviving cells, the media were replaced with 100 µL of DMSO 2 h after the administration of MTT solution. The absorbance was measured at 570 nm using a spectrophotometric plate reader (Molecular Devices, Sunnyvale, CA, USA).

[1] = biological target: T1, BACE1 (human recombinant β-secretase) (Homo sapiens, UniProt P56817); experiment: In vitro BACE1 FRET enzyme assay; assay type: biochemical
T1 sequence (P56817 46-501): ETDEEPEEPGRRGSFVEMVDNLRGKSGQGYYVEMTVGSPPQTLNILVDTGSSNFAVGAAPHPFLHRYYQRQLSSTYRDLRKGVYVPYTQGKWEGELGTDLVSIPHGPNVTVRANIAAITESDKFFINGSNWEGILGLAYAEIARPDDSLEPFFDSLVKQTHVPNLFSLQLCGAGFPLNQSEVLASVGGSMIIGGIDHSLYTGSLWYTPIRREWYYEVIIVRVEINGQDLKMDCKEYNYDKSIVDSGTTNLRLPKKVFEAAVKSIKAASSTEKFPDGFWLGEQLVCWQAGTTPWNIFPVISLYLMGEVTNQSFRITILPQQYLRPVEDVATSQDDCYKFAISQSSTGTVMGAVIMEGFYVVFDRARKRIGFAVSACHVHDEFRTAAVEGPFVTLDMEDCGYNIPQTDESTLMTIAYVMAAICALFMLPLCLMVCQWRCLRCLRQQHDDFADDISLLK
Description: (§2) BACE1 (human recombinant β-secretase) ([…]) and the BACE1 FRET (fluorescence resonance energy transfer) assay kit Red were purchased from ThermoFisher Scientific (P2985; Waltham, MA, USA). […] For the cell culture experiment, Dulbecco’s modified Eagle’s medium (DMEM), Opti-MEM, fetal bovine serum (FBS), and penicillin/streptomycin were obtained from Capricorn Scientific (Ebsdorfergrund, Germany). β-secretase inhibitor III (β-SI) was purchased from Calbiochem (Darmstadt, Germany). The protease inhibitor mixture (a mixture of AEBSF, pepstatin A, E-64, bestain, leupeptin, and aprotinin) was purchased from Sigma-Aldrich (St. Louis, MO, USA). Enzyme-linked immunosorbent assay (ELISA) kits for Aβ40 and Aβ42 were obtained from IBL (Kunma, Japan). All chemicals and solvents used were reagent grade, purchased from commercial sources, and used as received.
The BACE1 FRET assay was carried out according to the manufacturer’s instructions with slight modifications as previously described. The assay was performed in a […] black plate using a multi-pipette.

[2] = system: NIH3T3 mouse embryo fibroblasts; experiment: MTT cytotoxicity assay, NIH3T3; assay type: cell-based; conditions: 24 h
Description: as §1

B16F10 mouse melanoma = experiment: MTT cytotoxicity assay, B16F10; assay type: cell-based; conditions: 24 h
Description: as §1

horse serum BChE [3] = biological target: T2, horse serum BChE (Equus caballus, UniProt P81908); experiment: In vitro cholinesterase enzyme assay (Ellman), BChE; assay type: biochemical
T2 construct: horse serum BChE (EC 3.1.1.8); purchased Sigma-Aldrich Co; host or cells: horse serum
T2 sequence (P81908 whole entry): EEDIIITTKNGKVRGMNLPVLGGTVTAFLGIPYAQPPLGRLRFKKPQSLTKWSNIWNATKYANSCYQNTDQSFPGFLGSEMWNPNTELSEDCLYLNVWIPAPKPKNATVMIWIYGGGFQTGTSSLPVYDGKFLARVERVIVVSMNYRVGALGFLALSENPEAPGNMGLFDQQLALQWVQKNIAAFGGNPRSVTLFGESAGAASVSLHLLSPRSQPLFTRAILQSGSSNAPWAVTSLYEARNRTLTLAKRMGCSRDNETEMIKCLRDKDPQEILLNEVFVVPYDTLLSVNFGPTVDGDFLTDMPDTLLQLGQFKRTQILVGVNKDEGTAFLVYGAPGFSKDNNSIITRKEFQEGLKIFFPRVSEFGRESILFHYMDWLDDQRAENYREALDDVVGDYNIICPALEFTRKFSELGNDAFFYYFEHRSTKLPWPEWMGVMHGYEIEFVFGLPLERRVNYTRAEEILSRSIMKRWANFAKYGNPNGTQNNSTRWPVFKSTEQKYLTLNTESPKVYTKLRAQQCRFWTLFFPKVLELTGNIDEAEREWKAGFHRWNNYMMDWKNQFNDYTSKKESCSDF
Description: as §2
(§3) The inhibitory activities of pterosin derivatives against cholinesterases were measured using the method developed by Ellman et al.[32]. The reaction mixture contained 140 μL of sodium phosphate buffer (pH 8.0), 20 μL of test sample solution (final concentration of the compound 100 μM), and 20 μL of AChE or BChE solution, mixed and incubated for 15 min at room temperature. […] The reactions were initiated following the addition of 10 μL of DTNB and 10 μL of acetyl thiocholine iodide for the AChE assay or butyryl thiocholine chloride for the BChE assay in 96-well microplates, which were incubated for 15 min.

[4] = biological target: T1, BACE1 (human recombinant β-secretase); experiment: Kinetic analysis of BACE1 inhibition (Dixon and Lineweaver−Burk plots); assay type: biochemical; conditions: for Inhibition type BACE1: Dixon and Lineweaver−Burk plots
Description: (§4) The Ki was determined by interpretation of the Dixon plot, with the value of the x-axis intercept taken as −Ki.
Dixon plots for BACE1 inhibition by pterosin derivatives.
Dixon plots for BACE1 inhibition by pteroside derivatives.

[5] = system: SH-SY5Y human neuroblastoma; experiment: MTT cytotoxicity assay, SH-SY5Y; assay type: cell-based; conditions: 24 h
Description: as §1

in vitro = in vitro ADME; conditions: for Papp at 4 h, 25 µg/mL: pig, PAMPA, read-out: PAMPA-BBB permeability Pe
Description: PAMPA (parallel artificial membrane permeation assay) was used as a high-throughput assay to predict BBB permeation. Porcine polar brain lipid (PBL) was used as an artificial membrane to predict BBB permeation. Initially, the test compound was dissolved in DMSO at 5 mg/mL. This compound stock solution (10 µL) was diluted 200-fold in a universal buffer at pH 7.4 and mixed with a multi 8-channel pipette to obtain the secondary stock solution (final concentration 25 µg/mL). The secondary stock solution (200 µL) was placed in the donor wells. The filter membrane was coated with PBL in dodecane (4 mL volume of 20 mg/mL PBL in dodecane), and 5 µL of BBB-1 lipid solution was spread on PBL by pipette. The acceptor well was filled with […] of Acceptor Sink Buffer. The acceptor filter plate was cautiously positioned on the donor plate to assemble a “sandwich” (comprising an aqueous acceptor, artificial lipid membrane and aqueous donor with test compound on the top, middle and bottom, respectively). The test compound diffuses from the donor well to the acceptor well through the lipid membrane. After 4 h of incubation at pH 7.4 and 25 °C, the concentration of the compound in the acceptor, donor, reference and blank wells was estimated with a UV plate reader, Epoch Microplate Spectrophotometer (BioTek Instruments, Inc., Winooski, VT, USA). […] Samples were analyzed in quadruplets, and the average of the four runs was reported. To monitor the consistency of the analysis set, quality control standards were run with each sample set.
PAMPA-BBB, an in vitro artificial membrane permeability assay for the BBB, is one of the most reliable physicochemical screening tools in the early stage discovery of CNS-targeted drugs. The PAMPA-BBB system models the transcellular passive diffusion of chemicals across the BBB and measures strictly passive transport mechanisms via an artificial lipid membrane on effective permeability (Pe, cm/s).

horse serum BChE [6] = biological target: T2, horse serum BChE; experiment: Kinetic analysis of BChE inhibition (Dixon and Lineweaver−Burk plots); assay type: biochemical; conditions: for Inhibition type BChE: Dixon and Lineweaver−Burk plots
Description: as §4
Dixon plots for BChE inhibition by pterosin derivatives. (2S,3R)-Pterosin C (A), (2R,3R)-pterosin C (B), and (2R)-pterosin B (C) were tested in the presence of substrate concentrations of 0.2 mM (●), 0.4 mM (○), and 0.8 mM (▼).
Dixon plots for BChE inhibition by pteroside derivatives. (2R)-pteroside B (A), (2R,3R)-pteroside C (B), and (3S)-pteroside D (C) were tested in the presence of substrate concentrations of 0.2 mM (●), 0.4 mM (○), and 0.8 mM (▼). Lineweaver-Burk plots for BChE inhibition were generated with inhibitor concentrations of 0 µM (Δ), 4 µM (▼), 20 µM (○), and 100 µM (●) for (2R)-pteroside B (D); 0 µM (Δ), 0.8 µM (▼), 4 µM (○), and 20 µM (●) for (2R,3R)-pteroside C (E) and (3S)-pteroside D (F).

Electric eel AChE [7] = biological target: T3, Electric eel AChE (Electrophorus electricus, UniProt O42275); experiment: Kinetic analysis of AChE inhibition (Dixon and Lineweaver−Burk plots); assay type: biochemical; conditions: for Inhibition type AChE: Dixon and Lineweaver−Burk plots
T3 construct: purchased Sigma-Aldrich Co
T3 sequence (O42275 24-633): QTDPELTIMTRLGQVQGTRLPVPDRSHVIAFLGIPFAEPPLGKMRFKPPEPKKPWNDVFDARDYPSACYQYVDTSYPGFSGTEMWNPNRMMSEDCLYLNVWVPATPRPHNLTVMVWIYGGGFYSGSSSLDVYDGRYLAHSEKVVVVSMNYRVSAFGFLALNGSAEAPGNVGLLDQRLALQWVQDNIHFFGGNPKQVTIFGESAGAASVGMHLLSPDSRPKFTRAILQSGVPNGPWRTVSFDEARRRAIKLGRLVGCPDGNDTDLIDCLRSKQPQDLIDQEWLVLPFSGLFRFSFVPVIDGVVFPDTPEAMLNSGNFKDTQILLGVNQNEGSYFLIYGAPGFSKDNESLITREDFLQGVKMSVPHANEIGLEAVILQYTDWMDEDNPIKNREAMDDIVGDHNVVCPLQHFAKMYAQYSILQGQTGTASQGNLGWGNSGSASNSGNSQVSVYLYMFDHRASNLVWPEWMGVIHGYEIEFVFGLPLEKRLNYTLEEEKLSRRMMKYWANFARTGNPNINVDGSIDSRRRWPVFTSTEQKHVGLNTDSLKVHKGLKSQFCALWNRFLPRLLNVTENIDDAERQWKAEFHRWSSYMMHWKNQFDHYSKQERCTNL
Description: as §4
Dixon plots for AChE inhibition by pterosin derivatives. (2S,3R)-Pterosin C (A), (2R,3R)-pterosin C (B), and (2R)-pterosin B (C) were tested in the presence of substrate concentrations of 0.1 mM (●), 0.3 mM (○), and 0.6 mM (▼). Lineweaver-Burk plots for AChE inhibition were generated with inhibitor concentrations of 0 µM (Δ), 4 µM (▼), 20 µM (○), and 100 µM (●) for (2S,3R)-pterosin C (D) and (2R,3R)-pterosin C (E); and 0 µM (Δ), 2 µM (▼), 10 µM (○), and 50 µM (●) for (2R)-pterosin B (F).
Dixon plots for AChE inhibition by pteroside derivatives. (2R)-pteroside B (A), (2R,3R)-pteroside C (B), and (3S)-pteroside D (C) were tested in the presence of substrate concentrations of 0.1 mM (●), 0.3 mM (○), and 0.6 mM (▼). Lineweaver-Burk plots for AChE inhibition were generated with inhibitor concentrations of 0 µM (Δ), 0.8 µM (▼), 4 µM (○), and 20 µM (●) for (2R)-pteroside B (D), (2R,3R)-pteroside C (E), and (3S)-pteroside D (F).

Electric eel AChE [8] = biological target: T3, Electric eel AChE; experiment: In vitro cholinesterase enzyme assay (Ellman), AChE; assay type: biochemical
Description: as §2, §3

[9] = mean ± S.D. of three experiments
[10] = mean ± S.D. of three experiments, read-out: IC50 BChE
[11] = 4 h, pH 7.4, 25 °C, mean ± SD of quadruple experiments
[12] = mean ± S.D. of three experiments, read-out: IC50 AChE

Structure (SMILES) | LD50 Based on MTT Assay, C6 (C6 rat glial cells) | LD50 Based on MTT Assay, NIH3T3 [2] | LD50 Based on MTT Assay, B16F10 (B16F10 mouse melanoma) | IC50 (horse serum BChE [3]) | LD50 Based on MTT Assay, SY-SY5Y [5] | IC50 (Electric eel AChE [8]) | IC50 [1, 9] | IC50 (horse serum BChE [3]; [10]) | Papp at 4 h, 25 µg/mL (in vitro; [11]) | IC50 (Electric eel AChE [8]; [12]) | further results
Cc1cc2c(c(C)c1CCO)C(=O)[C@H](C)[C@H]2O [(2R,3R)-Pterosin C, (2R,3R)-pterosin C] | 694 ± 9.7 µM | >5,000 µM | >5,000 µM | 20.3 ± 0.88 µM | 719 ± 25 µM | 23.2 ± 4.6 µM |  |  |  |  | IC50 [1]: 26.2 ± 6.3 µM; Ki [4]: 27.6 µM; Inhibition type BACE1 [4]: Mixed-type; log Pe (in vitro): -5.70; Papp at 4 h, 25 µg/mL (in vitro; pH 7.4): 1.98 ± 0.17 ×10⁻⁶ cm/s; Ki (horse serum BChE [6]): 4.77 µM; Inhibition type BChE (horse serum BChE [6]): Mixed-type; Ki (Electric eel AChE [7]): 29.6 µM; Inhibition type AChE (Electric eel AChE [7]): Noncompetitive
Cc1cc2c(c(C)c1CCO)C(=O)C(C)(COC1OC(CO)C(O)C(O)C1O)C2 [(2S)-Pteroside A2, (2S)-pteroside A2] | >5,000 µM | >5,000 µM | >5,000 µM |  | 1,010 ± 60 µM |  | 94.4 ± 4.5 µM | 119 ± 2.5 µM | 0.54 ± 0.51 ×10⁻⁶ cm/s | 39.3 ± 1.9 µM | 
Cc1c(CCO[C@@H]2O[C@H](CO)[C@@H](O)[C@H](O)[C@H]2O)c(CO)cc2c1C(=O)[C@@H](C)C2 [(2S)-Pteroside P, (2S)-pteroside P] | >5,000 µM | >5,000 µM | >5,000 µM |  | 1,090 ± 99 µM |  | > 125 µM | 33.2 ± 3 µM |  | 57.5 ± 3.2 µM | IC50 BACE1 [1, 9]: inactive at the concentrations tested
Cc1cc2c(c(C)c1CCO)C(=O)[C@](C)(CO)C2 [(2S)-Pterosin A, (2S)-pterosin A] | >5,000 µM | >5,000 µM | 522 ± 25 µM |  | 1,210 ± 110 µM |  | > 125 µM | 67.3 ± 3.3 µM | 6.26 ± 0.24 ×10⁻⁶ cm/s | 56.7 ± 2.6 µM | IC50 BACE1 [1, 9]: inactive at the concentrations tested; log Pe (in vitro; PAMPA-BBB): -5.20; BBB permeation class (in vitro; PAMPA-BBB, classified by Pe, given in words): high BBB permeation
Cc1cc2c(c(C)c1CCO[C@@H]1O[C@H](CO)[C@@H](O)[C@H](O)[C@H]1O)C(=O)[C@@H](C)[C@H]2O [(2S,3R)-Pteroside C, (2S,3R)-pteroside C] | >5,000 µM | >5,000 µM | >5,000 µM |  | 711 ± 35 µM |  | 28.9 ± 2.2 µM | 13 ± 0.14 µM | 0.29 ± 0.34 ×10⁻⁶ cm/s | 9.17 ± 0.82 µM | 
Cc1cc2c(c(C)c1CCO)C(=O)[C@@H](C)[C@H]2O [(2S,3R)-Pterosin C, (2S,3R)-pterosin C] | >5,000 µM | >5,000 µM | >5,000 µM | 44.3 ± 1 µM | 2,940 ± 260 µM | 12.8 ± 0.79 µM |  |  |  |  | IC50 [1]: 23.1 ± 2.9 µM; Ki [4]: 33.8 µM; Inhibition type BACE1 [4]: Noncompetitive; log Pe (in vitro): -5.65; Papp at 4 h, 25 µg/mL (in vitro; pH 7.4): 2.34 ± 0.81 ×10⁻⁶ cm/s; Ki (horse serum BChE [6]): 29.9 µM; Inhibition type BChE (horse serum BChE [6]): Noncompetitive; Ki (Electric eel AChE [7]): 16.3 µM; Inhibition type AChE (Electric eel AChE [7]): Mixed-type
Cc1cc2c(c(C)c1CCO[C@@H]1O[C@H](CO)[C@@H](O)[C@H](O)[C@H]1O)C(=O)C(C)(C)C2 [Pteroside Z, pteroside Z] | 2,130 ± 62 µM | >5,000 µM | >5,000 µM |  | 1,430 ± 210 µM |  | 53.3 ± 1.2 µM | 5.31 ± 0.19 µM | 0.61 ± 0.17 ×10⁻⁶ cm/s | 24.1 ± 1.1 µM | 
Cc1cc2c(c(C)c1CCO)C(=O)C(C)(C)C2 [Pterosin Z, pterosin Z] | 1,850 ± 65 µM | 553 ± 37 µM | 618 ± 71 µM | 80.1 ± 6.8 µM | 495 ± 24 µM | 46.5 ± 3.4 µM | 80 ± 5.9 µM |  |  |  | 
